Test results published in PubChem BioAssay (NCI).
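Briefly, cells in 96-well plates were exposed to five compound concentrations for 48 h, and endpoints were estimated by linear interpolation. At the GI50, growth is halved. TGI is the concentration that stops growth completely.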

Assays:
Test in all cases: inhibition of tumour cell growth, NCI panel, 48 h
ACHN renal = system: ACHN renal
COLO 205 colon = system: COLO 205 colon
SW-620 colon = system: SW-620 colon
BT-549 breast = system: BT-549 breast
LOX IMVI melanoma = system: LOX IMVI melanoma
MDA-MB-435 = system: MDA-MB-435
SK-OV-3 ovarian = system: SK-OV-3 ovarian
SF-295 CNS = system: SF-295 CNS
TK-10 renal = system: TK-10 renal
HOP-92 NSCLC = system: HOP-92 NSCLC
SF-268 CNS = system: SF-268 CNS
UO-31 renal = system: UO-31 renal
SNB-75 CNS = system: SNB-75 CNS
OVCAR-3 ovarian = system: OVCAR-3 ovarian
HCT-116 colon = system: HCT-116 colon
MOLT-4 leukemia = system: MOLT-4 leukemia
A549 NSCLC = system: A549 NSCLC
SK-MEL-28 melanoma = system: SK-MEL-28 melanoma
SK-MEL-2 melanoma = system: SK-MEL-2 melanoma
OVCAR-4 ovarian = system: OVCAR-4 ovarian
IGROV1 ovarian = system: IGROV1 ovarian
786-0 renal = system: 786-0 renal
SF-539 CNS = system: SF-539 CNS
OVCAR-5 ovarian = system: OVCAR-5 ovarian
SN12C renal = system: SN12C renal
RXF 393 renal = system: RXF 393 renal
MALME-3M melanoma = system: MALME-3M melanoma
HCC-2998 colon = system: HCC-2998 colon
HOP-62 NSCLC = system: HOP-62 NSCLC

Work on Cc1nn(-c2ccccc2)c(-n2ccnc2)c1/C=N/Nc1nc(-c2ccc(Cl)c(Cl)c2)cs1 yielded a TGI (ACHN renal) of 16.9 µM, a GI50 (COLO 205 colon) of 4.46 µM and a TGI (COLO 205 colon) of over 100 µM. It also gave a GI50 (SW-620 colon) of 3.36 µM, a TGI (SW-620 colon) of 53.4 µM and a GI50 (BT-549 breast) of 5.88 µM. It also gave a TGI (BT-549 breast) of 45 µM, a GI50 (LOX IMVI melanoma) of 3.01 µM and a TGI (LOX IMVI melanoma) of 13.4 µM. The GI50 (MDA-MB-435) was 84.7 µM, the TGI (MDA-MB-435) was over 100 µM and the GI50 (SK-OV-3 ovarian) was 23.5 µM. It also gave a TGI (SK-OV-3 ovarian) of 69.4 µM, a GI50 (SF-295 CNS) of 5.21 µM and a TGI (SF-295 CNS) of 20.3 µM. The GI50 (TK-10 renal) was 20.3 µM, the TGI (TK-10 renal) was 63.2 µM and the GI50 (HOP-92 NSCLC) was 0.214 µM. It also gave a TGI (HOP-92 NSCLC) of 3.49 µM, a GI50 (SF-268 CNS) of 9.37 µM and a TGI (SF-268 CNS) of 37.5 µM. The GI50 (UO-31 renal) was 2.3 µM, the TGI (UO-31 renal) was 21.8 µM and the GI50 (SNB-75 CNS) was 1.66 µM. The TGI (SNB-75 CNS) was 5.35 µM, the GI50 (OVCAR-3 ovarian) was 1.68 µM and the TGI (OVCAR-3 ovarian) was 3.44 µM. It also gave a GI50 (HCT-116 colon) of 1.9 µM, a TGI (HCT-116 colon) of 4.75 µM and a GI50 (MOLT-4 leukemia) of 7.33 µM. For the same compound, the TGI (MOLT-4 leukemia) was over 100 µM, the GI50 (A549 NSCLC) was 2.72 µM and the TGI (A549 NSCLC) was 10 µM. The GI50 (SK-MEL-28 melanoma) was 3.89 µM, the TGI (SK-MEL-28 melanoma) was 19.7 µM and the GI50 (SK-MEL-2 melanoma) was 17.5 µM. It also gave a TGI (SK-MEL-2 melanoma) of 50.8 µM, a GI50 (OVCAR-4 ovarian) of 1.48 µM and a TGI (OVCAR-4 ovarian) of 3.76 µM. The GI50 (IGROV1 ovarian) was 6.07 µM, the TGI (IGROV1 ovarian) was 26.2 µM and the GI50 (786-0 renal) was 3.21 µM. It also gave a TGI (786-0 renal) of 13.3 µM, a GI50 (SF-539 CNS) of 3.66 µM and a TGI (SF-539 CNS) of 14.2 µM. The GI50 (OVCAR-5 ovarian) was 14.9 µM, the TGI (OVCAR-5 ovarian) was 57.6 µM and the GI50 (SN12C renal) was 4.2 µM. The TGI (SN12C renal) was 20.1 µM, the GI50 (RXF 393 renal) was 2.29 µM and the TGI (RXF 393 renal) was 6.12 µM. For the same compound, the GI50 (MALME-3M melanoma) was 1.95 µM, the TGI (MALME-3M melanoma) was 9.21 µM and the GI50 (HCC-2998 colon) was 5.1 µM. The TGI (HCC-2998 colon) was 46.8 µM, the GI50 (HOP-62 NSCLC) was 5.92 µM and the TGI (HOP-62 NSCLC) was 29.7 µM.
